One assay deals with T1, VapBC complex (Klebsiella pneumoniae subsp. pneumoniae, UniProt A6TG81).
T1 sequence (A6TG81 1-127): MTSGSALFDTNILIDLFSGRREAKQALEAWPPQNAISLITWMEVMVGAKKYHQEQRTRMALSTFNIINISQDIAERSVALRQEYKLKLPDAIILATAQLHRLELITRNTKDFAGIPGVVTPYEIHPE
T1 sequence (A6TG80 1-82 partner): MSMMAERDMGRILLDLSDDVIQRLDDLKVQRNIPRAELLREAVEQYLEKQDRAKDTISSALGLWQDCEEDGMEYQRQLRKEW
Briefly: VapBC complex disruption assay (RNase activity of VapC released from the complex). In kind it is biochemical. The note with it: for VapBC complex disruption efficacy: 1 μM compound added to 10 μM VapBC complex, compared with peptides at 100 μM; for IC50: inhibition curves, 10 μM VapBC complex; for VapBC complex disruption efficacy (RNase activity relative to VapC): 100 μM peptide added to 10 μM VapBC complex. Here is the method: (§1) The RNase activity of VapC and VapC mutants was confirmed using an RNase Alert Kit (Integrated DNA Technologies, Inc.). In this analysis, each well contained 50 pm of synthetic RNA with a fluorophore at one end and a quencher group at the other end. The quencher was separated when the prepared RNA was contacted by RNase. Then, fluorescence (RFU) generated during the 1 hour reaction period was detected using a SPECTRAmax GEMINI XS spectrometer (Molecular Devices) at 490 nm (excitation wavelength) and 520 nm (emission wavelength), respectively. For this analysis, the purified VapC and VapC mutants were treated with 10 mM EDTA to remove metal ions and exchanged with a purification buffer containing 10 mM Mg^2+. In each experiment, the concentrations of both VapC and VapC mutants were 10 μM. To prevent contamination, 40 units of RiboLock (Thermoscientific) were added to each well.
In this example, the peptide (100 μM) synthesized in Example 1 was added to the VapBC complex (10 μM) and the RFU of the activated VapC toxin was measured. Other experimental protocols were the same as those for the RNase activity test of VapC and VapC mutants (Experimental Method 5). Upon addition of the peptide of the present invention to the VapBC complex, the inhibitory efficacy of the peptide can be estimated by measuring the RNase activity generated by the free VapC released by the disruption of the VapBC complex.
Using a similar analysis method as in the design of peptides that activate VapC, the inhibitory effect of the compounds was ranked according to the degree of RNase activity by the free VapC released due to the disruption of the VapBC complex. That is, the small molecules were added to the VapBC complex (10 μM) and the efficacy of the small molecules to activate VapC was tested. Other experimental protocols were the same as those described for the peptide-induced complex disruption assay (Examples 2 and 3).

For a further assay, the system named is free VapC. In words: Effect on RNase activity of free VapC. In kind it is biochemical, Klebsiella pneumoniae. The note with it: substance added to free VapC. Here is the method: as §1
However, if the peptide contains the residues that interact with the nucleic acid binding site of VapC, which is the active site of VapC, the destructive ability is suppressed. Accordingly, in this example, the effect of the peptide of the present invention on the activity of free VapC was analyzed.
Through three tests, a total of 400 compounds were narrowed down to 25 according to the inhibitory efficacy ranking. […]

In the next assay the target is T2, VapC (Klebsiella pneumoniae subsp. pneumoniae, UniProt A6TG81).
T2 sequence (A6TG81 1-127): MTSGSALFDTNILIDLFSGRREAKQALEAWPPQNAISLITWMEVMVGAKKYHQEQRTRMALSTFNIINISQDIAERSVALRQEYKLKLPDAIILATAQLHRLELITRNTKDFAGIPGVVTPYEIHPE
In words: Isothermal titration calorimetry (ITC), binding to VapC. Here is the method:
ITC was performed using MicroCal200 (GE Healthcare). The concentrations of protein and DNA were determined using NanoDrop (Thermo) at 280 nm and 260 nm, respectively. Stock solutions of peptides and small molecules were prepared at appropriate concentrations. Titration was performed at 25° C. The data were calculated by subtracting the background and fitted to a single-site binding model using the provided source-based software with MicroCal200.
In general terms: In ITC the heat of successive injections is recorded.

In assay [1] the target is Klebsiella pneumoniae VapC toxin (kpn_04186) with N-terminal tag (Klebsiella pneumoniae (MGH78578)). In words: ITC, 25 °C, single-site binding model.
[2] abbreviates: 25° C., single-site binding model.
The mark [3] stands for this setting: 25° C., single-site binding model, read-out: Kd.
Where [4] appears, read: read-out: Kd (affinity to VapC).

Entries after “also recorded” stand apart in the source; their conditions may differ. Read-outs that look alike come from different tables or passages of the source.

For the molecule `NC(=O)NC(=O)CCN1CCC(C(=O)c2ccc(O)cc2)CC1` [Compound 1, N-carbamoyl-3-(4-(4-hydroxybenzoyl)piperidine-1-yl)propanamide], on VapBC complex, the “VapBC complex disruption efficacy” value was “higher efficacy at 1 μM” and the concentration for half-maximal inhibition (IC50) is 420 nM. The “RNase activity of free VapC after treatment” value with free VapC is “did not affect the RNase activity of VapC”. On VapC (25° C.), the TΔS turned out to be 1.93 kcal/mol, the ΔG was -6.37 kcal/mol and the ΔH was -8.3 ± 0.03 kcal/mol. Besides, the “n (the binding stoichiometry)” value on VapC (setting [2]) was determined as 0.98 ± 0.002. For the same molecule, on VapC (setting [3]), the Kd stood at 35 ± 0.4 nM.

Regarding `CCC1Oc2cc(S(=O)(=O)N3CCCC(C(=O)Nc4ccc(F)cc4)C3)c(C)cc2NC1=O` (stereo not drawn) [Compound 2, 1-((2-ethyl-6-methyl-3-oxo-3,4-dihydro-2H-benzo[b][1,4]oxazine-7-yl)sulfonyl)-N-(4-fluorophenyl)piperidine-3-carboxamide], on VapBC complex, the “VapBC complex disruption efficacy” value was “higher efficacy at 1 μM” and the half-maximal inhibitory concentration (IC50) came out at 400 nM. In addition, the “RNase activity of free VapC after treatment” value with free VapC is given as “did not affect the RNase activity of VapC”. On VapC (25° C.), this molecule came in with a TΔS of 1.39 kcal/mol, a ΔG of -7.71 kcal/mol and a ΔH of -9.1 ± 0.06 kcal/mol. At VapC (setting [2]), the “n (the binding stoichiometry)” value was found to be 0.99 ± 0.004. For the same molecule, on VapC (setting [3]), the equilibrium dissociation constant (Kd) was 22 ± 0.2 nM.

On to GMEAARQL [VapB^71-78, Y74A, Q75A], for which the “VapBC complex disruption efficacy (RNase activity relative to VapC)” value with VapBC complex is on record as “lower efficacy than the VapB peptide in which either one was mutated to alanine”.

GMEAQRQL [VapB^71-78, Y74A]: the “VapBC complex disruption efficacy (RNase activity relative to VapC)” value on VapBC complex was “highest efficacy among all the designed peptides; also recorded: higher activity than VapB^71-78”. At VapC (25° C.), this molecule had a TΔS of -4.17 kcal/mol, a ΔG of -17.57 kcal/mol and a ΔH of -13.4 ± 0.02 kcal/mol. The “n (the binding stoichiometry)” value at VapC (setting [2]) came to 0.99 ± 0.001. On VapC (setting [4]), the Kd came out at 170 nM.

GMEYARQL [VapB^71-78, Q75A]: the “VapBC complex disruption efficacy (RNase activity relative to VapC)” value at VapBC complex is recorded as “higher activity than VapB^71-78”. Besides, at VapC (25° C.), the TΔS was -1.53 kcal/mol, the ΔG was -12.33 kcal/mol and the ΔH was -10.8 ± 0.02 kcal/mol. Moreover, the “n (the binding stoichiometry)” value on VapC (setting [2]) is reported as 0.99 ± 0.001. Further, the Kd on VapC (setting [4]) came out at 150 nM.

At VapC (25° C.), GMEYQRQL [VapB^71-78] gave a TΔS of -8.4 kcal/mol, a ΔG of -26.3 kcal/mol and a ΔH of -17.9 ± 0.07 kcal/mol. Also, the “n (the binding stoichiometry)” value on VapC (setting [2]) worked out at 1.02 ± 0.002. Also, the Kd on VapC (setting [4]) came out at 110 nM.

In assay [1], “Klebsiella pneumoniae VapB antitoxin (kpn_04185)” came in with a Kd of 3 nM, a TΔS of -16.4 kcal/mol, a n (the binding stoichiometry) of 0.97 and a ΔH of -28.1 kcal/mol.

Consider GMEAQRQL [Peptide VapB^71-78, Y74A], for which, in assay [1], the Kd turned out to be 170 nM, the TΔS was -4.17 kcal/mol, the n (the binding stoichiometry) came out at 0.99 and the ΔH was -13.4 kcal/mol.

In assay [1], GMEYQRQL [Peptide VapB^71-78] displayed a Kd of 110 nM, a TΔS of -8.4 kcal/mol, a n (the binding stoichiometry) of 1.02 and a ΔH of -17.9 kcal/mol.

For GMEYARQL [Peptide VapB^71-78, Q75A], in assay [1], the Kd was found to be 150 nM, the TΔS is -1.53 kcal/mol, the n (the binding stoichiometry) came out at 0.99 and the ΔG was -12.3 kcal/mol. The ΔH in assay [1] is -10.8 kcal/mol.

As usually defined, the IC50 is the concentration needed to halve the response being measured. One may read the Kd as the equilibrium constant for the complex coming apart.

The record behind these values is patent US20240101603A1, “ANTIBACTERIAL PEPTIDES AND COMPOUNDS TARGETING TOXIN-ANTITOXIN SYSTEM OF […], AND THEIR USE” (SEOUL NATIONAL UNIVERSITY R&DB FOUNDATION, priority 2021, published 2024).
